{"source": "patent US20140005275A1", "about": "“TOPICAL APPLICATION OF 1-HYDROXYL 3,5-BIS(4'HYDROXYL STYRYL)BENZENE” (priority 2012, published 2014)", "key": {"[1]": {"tested_on": "NF-kB luciferase promoter", "experiment": "NF-κB INHIBITION TEST (NF-kB luciferase reporter, TNFα-stimulated H9c2 cells)", "assay_type": "cell-based, Rat", "conditions": "TNFα 100 ng/ml, versus TNFα + Vehicle (0.1% DMSO)", "experimental": "NFκB-INHIBITION TESTS were performed on various concentrations of 1-hydroxyl 3,5-bis(4′hydroxyl styryl)benzene and a vehicle control (DMSO). The 1-hydroxyl 3,5-bis(4′hydroxyl styryl)benzene was prepared as described in U.S. Pat. No. 7,745,670. The NF-κB INHIBITION TEST was conducted as follows. Rat cardiac myoblasts H9c2 cells were purchased from ATCC (Manassas, Va.). Cultures were maintained in Dulbecco's modified Eagle's medium (DMEM, Invitrogen Life Technologies, Carlsbad, Calif.) supplemented with 10% fetal bovine serum, 100 units/ml penicillin, and 50 ug/ml streptomycin (Invitrogen life technologies, Carlsbad, Calif.). 1×10^4 cells grown in 96-well plates were transiently transfected with 0.45 ug total DNA per well using Lipofectamine 2000 (Invitrogen life technologies, Carlsbad, Calif.). In all transfections, a construct with the thymidine kinase promoter and the Renilla luciferase reporter gene (pRL-TK, Promega, Madison Wis.) was included as an internal control in addition to the NF-kB luciferase promoter. One day after transfection, cells were treated with the indicated samples (in DMSO as vehicle) at indicated concentrations and stimulated with 100 ng/mL of Tumor Necrosis Factor-α (TNFα, Sigma-Aldrich, St Louis, Mo.) for approximately 24 hours before they were lysed for luciferase assays, using Dual-Luciferase Reporter System from Promega (Madison, Wis.), following manufacturer's protocol. Briefly, the firefly luciferase activity was measured first (representing NF-kB promoter activity), followed by the renilla luciferase (internal control), using luminometer LMAX, from Molecular Devices (Sunnyvale, Calif.). The ratio of these two luciferase activities (RLU) was used to evaluate the activity of each promoter: NF-κB Inhibition=[1−(RLUsample/RLUcontrol)]*100 where RLUsample and RLUcontrol are the normalized luciferase activity ratios of the sample and control, respectively. The results are shown in Table 1, in which NF-kB Gene Reporter Activation (Luminescence, L) is reported. Percent NF-kB Inhibition is also reported."}, "Elastin": {"tested_on": "Elastin", "experiment": "Induction of Elastin gene expression in primary human dermal fibroblasts (quantitative PCR)", "assay_type": "cell-based", "conditions": "for Elastin Normalized Fold-change in PCR (Mean): 0.1 ug/mL, 48 hr, normalized to GAPDH, from untreated", "experimental": "(§1) Primary human dermal fibroblasts (Lifeline Cell Technologies, Frederick, Md.) were grown until confluence in DMEM media (Invitrogen/Life Technologies, Carlsbad, Calif.) with 10% FBS and 1% Penicillin-Streptomycin on 24 well tissue culture plates, followed by treatment with 1-hydroxyl 3,5-bis(4′hydroxyl styryl)benzene (0.1 ug/mL) with and without TNF-a for 48 hr. Post-treatment, cells were lysed using RLT buffer and total RNA was isolated using the RNeasy Mini Kit (Qiagen, Valencia, Calif.). Quantitative PCR was performed using the Gene Amp PCR System 9700 and 7500 Real Time PCR System cycler (Applied Biosystems)/Life Technologies, Carlsbad, Calif.). Elastin (Qiagen) and Collagenlal primers (custom sequence-sense: 5′-TCC-CCA-GCT-GTC-TTA-TGG-CT-3′ and anti-sense: 5′-CAG-GCA-CGG-AAA-TTC-CTC-C-3′) were used. The housekeeping gene GAPDH was used for normalization (custom primer sequence: F 5′-ATC-TCT-GCC-CCC-TCT-GCT-G-3′ and R 5′-ATG-GTT-CAC-ACC-CAT-GAC-GA-3′; Invitrogen/Life Technologies, Carlsbad, Calif.). Fold-changes in PCR (normalized to GAPDH) were calculated from untreated."}, "IL-8 cytokine release": {"tested_on": "IL-8 cytokine release", "experiment": "Anti-inflammatory activity: IL-8 cytokine release from epidermal equivalents after solar UV exposure", "assay_type": "cell-based, human", "conditions": "for Change over vehicle alone (Normalized to 100) / % inhibition over UV treatment: IL-8 release; for Change over vehicle alone (Normalized to 100): 2 h before UV 70 kJ/m^2, 24 hours; for % inhibition over UV treatment: UV-exposed epidermal equivalents; for UV-induced inflammation (result in words): summary of Table 2", "experimental": "The topical anti-inflammatory activities of 1-hydroxyl 3,5-bis(4′hydroxyl styryl)benzene and its piperazine salt were evaluated as follows.\nEpidermal equivalents (EPI 200 HCF), multilayer and differentiated epidermis consisting of normal human epidermal keratinocytes, were purchased from MatTek (Ashland, Mass.). Upon receipt, epidermal equivalents were incubated for 24 hours at 37° C. in maintenance medium without hydrocortisone. Equivalents were topically treated (2 mg/cm^2) with 1-hydroxyl 3,5-bis(4′hydroxyl styryl)benzene thereof in a 70:30 Ethanol-Propylene glycol vehicle two hours before exposure to solar ultraviolet light (1000W-Oriel solar simulator equipped with a 1-mm Schott WG 320 filter; UV dose applied: 70 kJ/m^2 as measured at 360 nm). The equivalents were incubated for 24 hours at 37° C. with maintenance medium then supernatants were analyzed for IL-8 cytokine release using commercially available kits (Millipore Corp., Billerica, Mass.)."}, "MMP-9": {"tested_on": "MMP-9", "experiment": "Inhibition of TNF-α-induced MMP-9 levels in epidermal equivalents", "assay_type": "cell-based, human", "conditions": "for Mean of MMP-9 Release: 2 hours before TNF-α (100 ng/mL), 48 hours", "experimental": "The ability of 1-hydroxyl 3,5-bis(4′hydroxyl styryl)benzene to inhibit TNF-a induced MMP-9 levels was tested at different concentrations as follows. The formation of TNF-α induced MMP-9 is involved in the undesirable breakdown of extracellular matrix in human skin.\nEpidermal equivalents (EPI 200 HCF) were purchased from MatTek (Ashland, Mass.). Upon receipt, the epidermal equivalents were incubated for 24 hours at 37° C. in maintenance medium without hydrocortisone. The equivalents were topically treated (2 mg/cm^2) with 1-hydroxyl 3,5-bis(4′hydroxyl styryl)benzene extracts in a 70% ethanol/30% propylene glycol vehicle 2 hours before treatment with TNF-α (100 ng/mL). the equivalents were incubated for 48 hours at 37° C. with maintenance medium then supernatants were analyzed for MMP-9 using commercially available kits (R&D Systems, Minneapolis, Minn.)."}, "Collagen1A": {"tested_on": "Collagen1A", "experiment": "Induction of Collagen1A gene expression in primary human dermal fibroblasts (quantitative PCR)", "assay_type": "cell-based", "conditions": "for Collagen1A Normalized Fold-change in PCR (Mean): 0.1 ug/mL, 48 hr, normalized to GAPDH, from untreated", "experimental": "as §1"}, "[2]": {"conditions": "0.5% topical (2 mg/cm^2) in 70:30 Ethanol-Propylene glycol"}, "[3]": {"conditions": "1% topical (2 mg/cm^2) in 70:30 Ethanol-Propylene glycol"}}}
{"smiles": "Oc1ccc(/C=C/c2cc(O)cc(/C=C/c3ccc(O)cc3)c2)cc1", "note": "[1-Hydroxyl 3,5-bis(4′hydroxylstyryl)benzene]", "values": [{"measurement": "Percent NF-kB Inhibition", "setting": "[1]; 0.2 ug/ml", "result": 0.5, "unit": "%"}, {"measurement": "Percent NF-kB Inhibition", "setting": "[1]; 0.5 ug/ml", "result": 22.1, "unit": "%"}, {"measurement": "Percent NF-kB Inhibition", "setting": "[1]; 1 ug/ml", "result": 51.7, "unit": "%"}, {"measurement": "Percent NF-kB Inhibition", "setting": "[1]; 2 ug/ml", "result": 71.0, "unit": "%"}, {"measurement": "Percent NF-kB Inhibition", "setting": "[1]; 4 ug/ml", "result": 96.1, "unit": "%"}, {"measurement": "Elastin Normalized Fold-change in PCR (Mean)", "setting": "Elastin; with TNF-α (10 ng/mL)", "result": 1.12}, {"measurement": "Elastin Normalized Fold-change in PCR (Mean)", "setting": "Elastin; without TNF-α", "result": 6.23}, {"measurement": "expression of genes associated with elastin production (result in words)", "setting": "Elastin; summary of Tables 3A and 3B", "result": "increased the expression of genes associated with collagen and elastin production"}, {"measurement": "Change over vehicle alone (Normalized to 100)", "setting": "IL-8 cytokine release; [2]", "result": "82 ± 21"}, {"measurement": "% inhibition over UV treatment", "setting": "IL-8 cytokine release; 0.5% topical", "result": 39, "unit": "%"}, {"measurement": "Change over vehicle alone (Normalized to 100)", "setting": "IL-8 cytokine release; [3]", "result": "80 ± 26"}, {"measurement": "% inhibition over UV treatment", "setting": "IL-8 cytokine release; 1% topical", "result": 40, "unit": "%"}, {"measurement": "UV-induced inflammation (result in words)", "setting": "IL-8 cytokine release", "result": "strong reduction in UV-induced inflammation"}, {"measurement": "Mean of MMP-9 Release", "setting": "MMP-9; 0.25% w/v topical (2 mg/cm^2)", "result": "1392 ± 627", "unit": "ng/mL"}, {"measurement": "Mean of MMP-9 Release", "setting": "MMP-9; 0.5% w/v topical (2 mg/cm^2)", "result": "1012 ± 249", "unit": "ng/mL"}, {"measurement": "inhibition at 0.25 % strength", "setting": "MMP-9; Homo sapiens, 0.25% w/v topical, TNF-α 100 ng/mL, read-out: Percent Inhibition of MMP-9 Production (over TNF-α alone)", "result": 60.9, "unit": "%"}, {"measurement": "inhibition at 0.5 % strength", "setting": "MMP-9; Homo sapiens, 0.5% w/v topical, TNF-α 100 ng/mL, read-out: Percent Inhibition of MMP-9 Production (over TNF-α alone)", "result": 71.6, "unit": "%"}, {"measurement": "formation of TNF-α induced MMP-9 (result in words)", "setting": "MMP-9; summary of Table 4", "result": "inhibited the formation of TNF-α induced MMP-9"}, {"measurement": "Collagen1A Normalized Fold-change in PCR (Mean)", "setting": "Collagen1A; with TNF-α (10 ng/mL)", "result": 1.36}, {"measurement": "Collagen1A Normalized Fold-change in PCR (Mean)", "setting": "Collagen1A; without TNF-α", "result": 2.96}, {"measurement": "expression of genes associated with collagen production (result in words)", "setting": "Collagen1A; summary of Tables 3A and 3B", "result": "increased the expression of genes associated with collagen and elastin production"}]}
{"smiles": "Oc1ccc(C=Cc2cc(O)cc(C=Cc3ccc(O)cc3)c2)cc1", "note": "[1-hydroxyl 3,5-bis(4′hydroxylstyryl)benzene]", "values": [{"measurement": "Change over vehicle alone (Normalized to 100)", "setting": "IL-8 cytokine release; [2]", "result": "85 ± 14"}, {"measurement": "% inhibition over UV treatment", "setting": "IL-8 cytokine release; 0.5% topical", "result": 37, "unit": "%"}, {"measurement": "Change over vehicle alone (Normalized to 100)", "setting": "IL-8 cytokine release; [3]", "result": "81 ± 31"}, {"measurement": "% inhibition over UV treatment", "setting": "IL-8 cytokine release; 1% topical", "result": 40, "unit": "%"}, {"measurement": "UV-induced inflammation (result in words)", "setting": "IL-8 cytokine release", "result": "strong reduction in UV-induced inflammation"}]}
